Common to all, as to type: cell-based
Experiment [1] concerns Escherichia coli (ATCC-8739). In words: Assay of conjugative action of SL and antibiotic (micro dilution and spread plate, CFU count, % cell survival).
Description: (§4) Accordingly, the stock solutions were prepared in sterile distilled water to assess the MIC values of the antibiotic and SL. The stock strength used was 1 mg/ml for antibiotics and 10 mg/ml for SL. […] In the first step, A600 i.e. absorbance of bacterial suspension giving isolated colonies was fixed and the same A600 was maintained throughout the experiment. Then the MIC values were determined for SL as well as antibiotic against the bacteria. […] For assessing the conjugative effect, the sublethal concentrations of both antimicrobial agents were used so as to rightly evaluate the conjugative effect.
(§5) According to another aspect, the assay of conjugative action of SL and antibiotic was performed using standard micro dilution and spread plate method. The reaction mixtures were prepared by adding SL and antibiotic stock solutions to sterile distilled water in requisite volumes followed by the addition of bacterial suspension. The control reactions were also set with both bacterial systems to evaluate the effect of antibiotic and SL alone. Controls without addition of any antimicrobial agent were also maintained. The reaction mixtures were incubated at 28° C., 180 rpm for 6 h. The samples were removed at periodic intervals of 2 h, 4 h and 6 h and number of Colony Forming Units (CFUs) were determined by spreading 50 μl of mixture on Nutrient agar plates. […]
Experiment [2] has as its system Escherichia coli (ATCC-8739). Nature of the experiment: MIC determination on culture plate. The following applies: against E. coli (ATCC8739). The source says: (§1) The test microorganisms—Staphylococcus aureus (ATCC-29737) (gram positive) and Escherichia coli (ATCC-8739) (gram negative) used in the invention were procured from National Collection of Industrial Microorganisms, NCL. These two bacteria are of concern due to following reasons—Staphylococcus aureus, capable of causing wide range of severe skin infections; is rapidly evolving resistance to contemporary topical as well as systemic antibiotics (Englander and Friedman 2010). And Escherichia coli, another index bacterium; is more than just a harmless intestinal inhabitant; it can also be a highly versatile, and frequently deadly pathogen. Several different E. coli strains cause diverse intestinal and extra-intestinal diseases by means of virulence factors that affect a wide range of cellular processes (Kaper et al. 2004).
(§2) Accordingly, the stock solutions were prepared in sterile distilled water to assess the MIC values of the antibiotic and SL. The stock strength used was 1 mg/ml for antibiotics and 10 mg/ml for SL. The conjugative/synergistic effect of SL and tetracycline was checked against S. aureus while the conjugative effect of SL and cefaclor was checked against E. coli. In the first step, A600 i.e. absorbance of bacterial suspension giving isolated colonies was fixed and the same A600 was maintained throughout the experiment. Then the MIC values were determined for SL as well as antibiotic against the bacteria. Minimum Inhibitory Concentration (MIC) is defined as the lowest concentration of compound that inhibits visible growth of microorganisms on the culture plate (Rai et al. 2010). For assessing the conjugative effect, the sublethal concentrations of both antimicrobial agents were used so as to rightly evaluate the conjugative effect. Against S. aureus, sublethal concentration of SL was decided to be 300 μg/ml and for tetracycline it was 15 μg/ml.
(§3) The stock solutions were prepared in sterile distilled water to assess the MIC values of the antibiotic and SL. The stock strength used was 1 mg/ml for antibiotics and 10 mg/ml for SL. […]

Experiment [3] deals with Staphylococcus aureus (ATCC-29737). In words: Assay of conjugative action of SL and antibiotic (micro dilution and spread plate, CFU count, % cell survival). The following applies: FIG. 2(a); tetracycline 15 μg/ml, SL 300 μg/ml; up to 6 h exposure.
Description: as §4, §5
The test system is the same in experiment [4]. Nature of the experiment: MIC determination on culture plate.
Source text: as §1, §2, §3

Counter-ions that a name gives are not always drawn. Like-named read-outs stand apart in the source and are kept apart here.

As for `N[C@@H](C(=O)N[C@@H]1C(=O)N2C(C(=O)O)=C(Cl)CS[C@H]12)c1ccccc1` [Cefaclor], the “exposure required to get equivalent effect (~98% killing)” value in experiment [1] (E. coli, cefaclor alone 50 μg/ml) amounted to 6 h. For the same molecule, the “inhibition of E. coli (in words)” value in experiment [1] (FIG. 2(b), cefaclor 50 μg/ml, SL 500 μg/ml, up to 6 h exposure) was “almost total inhibition at the end of 6 h exposure”. In experiment [2], the MIC was 200 µg/mL.

With `CN(C)[C@@H]1C(O)=C(C(N)=O)C(=O)[C@@]2(O)C(O)=C3C(=O)c4c(O)cccc4[C@@](C)(O)[C@H]3C[C@@H]12` [tetracycline-HCl], the “inhibition of S. aureus (in words)” value in experiment [3] is “cannot achieve total inhibition even after 6 h”. Moreover, the MIC worked out at 150 µg/mL in experiment [4] (Staphylococcus aureus, against S. aureus (ATCC29737), read-out: MIC value) and 150 μn/ml in experiment [4] (against Staphylococcus aureus).

(Values after patent publication US9585903B2, “Pharmaceutical composition comprising sophorolipid in combination with an antibiotic” (priority 2013, dated 2017).)
